The text below walks through data of the NIST ThermoML archive (doi:10.1021/acs.jced.7b00185).

± gives the expanded uncertainty stated by the source.

For the series the following is noted: Liquid; for mass density: 298.15 K, 101.33 kPa, Vibrating tube method; for vapor or sublimation pressure: Ebulliometric method (Recirculating still).

`CO` [methanol]: the mass density (in general, mass per unit of volume) is 786.56 ± 0.12 kg/m3.

As for `CCOC(=O)C(C)O` (racemic) [DL-ethyl lactate], the mass density was 1028.08 ± 0.1 kg/m3.

For `COC(=O)OC` [dimethyl carbonate], the mass density was found to be 1063.29 ± 0.08 kg/m3. For the same molecule, the vapor or sublimation pressure (as a rule, the pressure of vapour in equilibrium with the condensed phase) (336.61 K) was 40 ± 3.5 kPa. Moreover, under “344.29 K”, the “vapor or sublimation pressure” value is 53.33 ± 3.8 kPa. In addition, the “vapor or sublimation pressure” value (350.5 K) is on record as 66.66 ± 4.6 kPa. Further, the “vapor or sublimation pressure” value (355.83 K) is 79.99 ± 5.3 kPa. Besides, the “vapor or sublimation pressure” value (360.49 K) came out at 93.32 ± 5.9 kPa. Also, under “363 K”, the “vapor or sublimation pressure” value was found to be 101.3 ± 6.4 kPa.
